SMILES strings stand for the structures.

One series has as its system Typhlodromus pyri. Kind of series: LR50; higher = less toxic. The conditions noted are these: chronic/long-term; duration: 7 days; mortality.
The subject of another series is Aphidius rhopalosiphi. Put plainly: LR50; higher = less toxic. The conditions noted are these: acute; duration: 48 hours; mortality.
The next series has as its system Coturnix japonica. Conditions: reproduction developmental; duration: 6 weeks; reproduction.
Another series has as its system Apis mellifera. Conditions: acute, mortality.
Another series has as its system Oncorhynchus mykiss. The conditions noted are these: chronic/long-term; duration: 87 days; growth.
For a further series, the system named is Daphnia magna. The conditions noted are these: chronic/long-term; duration: 21 days; mobility.
In a further series the test system is Lepomis macrochirus. Conditions: acute; duration: 96 hours; mortality.
A further series concerns Colinus virginianus. Conditions: acute, oral, mortality.
Another series deals with Oryctolagus sp. The conditions noted are these: developmental; development.

The term NOAEL denotes the highest dose or exposure tested at which no adverse effect was seen. On to `CCOc1nc(NC)nc(NC(=O)NS(=O)(=O)c2ccccc2C(=O)OC)n1` [Ethametsulfuron-methyl], for which the LR50 was 11.4 g/ha in the series on Typhlodromus pyri and above 18.8 g/ha in the series on Aphidius rhopalosiphi. The NOAEL in the series on Coturnix japonica is 229 mg/kg-day; in the series on Oryctolagus sp. it was below 250 mg/kg-day; in the series on Rattus norvegicus (chronic, duration: 2 years, clinical chemistry) it was 21 mg/kg-day. Besides, the LD50 with Apis mellifera (duration: 48 hours, oral, unspecified) is 40.8 µg/piece; in the series on Apis mellifera (duration: 72 hours, dermal) it was 4.62 µg/piece; in the series with Colinus virginianus it was 2250 mg/kg-day; with Rattus norvegicus (acute, oral, mortality) it was above 5000 mg/kg-day. For the same compound, the LC50 with Tagia sp. (acute, duration: 14 days, mortality) was 116 mg/kg; in the series with Lepomis macrochirus, above 123 µg/mL; in the series with Colinus virginianus (duration: 5 days, diet), above 1160 mg/kg-day. For the same compound, the NOEC is 27.3 mg/kg with Tagia sp. (chronic/long-term, duration: 56 days, reproduction); 5.4 mg/L in the series with Oncorhynchus mykiss; 4.7 mg/L in the series on Daphnia magna.

For the origin of these results see EPA's ToxValDB 9.5 (doi:10.2903/j.efsa.2014.3508).
